# Test results as given in US9155751B2, “Solution for tissue adhesion prevention and method for tissue adhesion prevention” (THE UNIVERSITY OF TOKYO, priority 2005, dated 2015).
# Several values for one entry are separate records, joined by “and”; a condition that tells them apart may be missing. Identical values can stand only once. Entries after “also recorded” stand apart in the source; their conditions may differ.
# Tests used:
# [1] = test system: HepG2 cells; assay: HepG2 cell survival after air-dry (neutral red absorbance); type: cell-based, human; details: for cell survival rate: activated with sample solution 37 degrees C 1 hour, air-dry 3 minutes, control plate without air-dry = 100%; for cell survival rate in control plates (effect of each reagent on cells): air-dry not performed, control plate for PBS (+) = 100%; for cell protection effect: plates air-dried for 3 minutes
# Experimental: As cells, HepG2 cells (human hepatoma-derived cell lines) were used.
# For all reagents other than HepG2 cells, AA-2G, trehalose, DMEM media, FCS, neutral red, reagent grade chemicals were used. In addition, as sample solution in which HepG2 cells were activated, 4 kinds of solution; PBS (+) solution, 2.5 mM AA-2G solution, 132 mM trehalose solution, 2.5 mM AA-2G+132 mM trehalose mixed solution were prepared.
# A reagent ascorbic acid-2-glucoside (AA2G; Hayashihara Biochemical Labs., Inc.) was dissolved in distilled water to obtain 2.5 mM AA-2G solution. And a highly purified hydrated crystal trehalose in powder (Reagent trehalose; Hayashihara Biochemical Labs., Inc.) was dissolved in distilled water to obtain 132 mM trehalose solution. The reagents ascorbic acid-2-glucoside and the highly purified hydrated crystal trehalose in powder were dissolved in distilled water to obtain 2.5 mM AA-2G+132 mM trehalose mixed solution. Then, pH and osmolarity of these 4 kinds of sample solutions were adjusted. Adjustment of osmolarity of 2.5 mM AA-2G solution, 132 mM trehalose solution, 2.5 mM AA-2G+132 mM trehalose mixed solution was performed by adjusting with sodium chloride of PBS (+) to be isotonic.
# The pH and osmolarity of each sample after adjustment were as follows; pH 7.2 and 279 mOsm for PBS (+) solution, pH 6.8 and 265 mOsm for 2.5 mM AA-2G solution, pH 7.2 and 283 mOsm for 132 mM trehalose solution and pH 7.0 and 282 mOsm for 2.5 mM AA-2G+132 mM trehalose mixed solution.
# Then, HepG2 cells were seeded with 4×10^4 cells/well each to four 12-well plates, and incubated in DMEM media (Nissui Pharmaceutical Co., Ltd) containing 10% FCS (Gibco) for 4 days. Then the DMEM media containing 10% FCS were replaced with 4 kinds of sample solutions; PBS (+) solution, 2.5 mM AA-2G solution, 132 mM trehalose solution, 2.5 mM AA-2G+132 mM trehalose mixed solution, and activated at 37 degrees C. for 1 hour.
# Two control plates and two test plates were prepared for cells activated with 4 kinds of sample solutions, respectively. For each two test plates, one plate was air-dried for 5 minutes and other plate was air-dried for 3 minutes. The two control plates were not air-dried.
# Then, cells of each plate was replaced with no serum DMEM media and incubated at 37 degrees C. for 1 hour. After replacing with 0.02% neutral red (Wako Pure Chemical Industries, Ltd, hereinafter referred to NR), they were activated at 37 degrees C. for 40 minutes. After removal of NR solution and addition of PBS (+), they were left to stand at 37 degrees C. for 40 minutes, PBS (+) was removed and they were air-dried for 5 minutes. They were added NR extracts and left to stand at 37 degrees C. for 10 minutes, then each sample was distributed over 96-well plate and the absorbance at the wavelength of 570 nm was measured.
# The absorbance of the control plates to which air-dry was not performed was considered as cell survival rate of 100%, and the cell survival rate of the test plates to which air-dry was performed for 3 minutes was calculated. The results are shown in the graph indicating changes in cell survival rate by air-dry in FIG. 1.
# Also, the cell survival rates of control plates for each sample solution to which air-dry was not performed were calculated. The results are shown in the graph indicating the effect of each reagent on cells in FIG. 2.
# [2] = test system: abdominal adhesion model using rabbits; assay: Rabbit abdominal adhesion model by desiccating intestine surface during abdominal surgery (Example 2); type: in vivo, New Zealand White rabbits; details: for Clinical findings: 2% trehalose solution sprayed on whole intestines several times during laparotomy
# Experimental: In this example, abdominal adhesion model was prepared using rabbits by desiccating surface of intestines during abdominal surgery, and the preventive effect of intestine adhesion by trehalose was discussed.
# As trehalose, powder trehalose (Reagent trehalose; Hayashihara Biochemical Labs., Inc.) and ^+NaCl were dissolved in sterile distilled water of 250 mL as 2%; solution, sterilized by filtration with filter (Millex; Millpore Co., Bedford) and poured to sterile container and stored at room temperature. As test animals, five female New Zealand White rabbits weighing 2.85 to 3.2 kg aged of 14 weeks (Std:NZW, Japan SLC, Inc., Shizuoka) were used. The rabbits were kept in animal laboratory (room temperature of 24+/−1 degrees C., humidity of 30 to […]) in The University of Tokyo, Graduate School of Agricultural and Life Sciences Veterinary Medical Center. The rabbits were acclimatized for 1 week after purchase, and during this period blood test (complete blood count, BUN, Cre, ALT, ALP) and general x-ray test were performed to confirm that abnormality was not present. The experiment of this example was performed according to the Manual of animal experiment of University of Tokyo.
# (§1) The experiment of this example was performed as follows.
# (§2) As anesthesia, 5 mg/kg of ketamine (KETALAL 50; Sankyo Lifetech Co., Ltd., Tokyo) and 0.1 mg/kg of medetomidine (DOMITOL; Meiji Seiyaku Co., Ltd., Tokyo) were intramuscularly injected as preoperative medication, and after intubation maintained with isoflurane (ISOFLU; Dainippon Pharmaceutical Co., Ltd., Osaka). Before operation, 10 mg/kg of enrofloxacin (BAYTRIL; Bayer Medical Ltd., Tokyo) was subcutaneously administered as antibiotics, and during operation 10 mL/kg/hr of lactated Ringer's solution (FUSO; Fuso Pharmaceutical Industries, Ltd., Osaka) was intravenously administered, After operation, single dose of 20 μg/kg of buprenorphine (LEPETAN; Otsuka Pharmaceutical Co., Ltd., Tokyo) as analgesics was subcutaneously administered. During anesthesia, ECG, ETCO2 and SpO2 were monitored and maintained within their normal variations.
# Three rabbits among the five rabbits were randomized to the control group, and the other two rabbits were classified into the trehalose group. For the five rabbits, after disinfection of operative field, abdominal median incision was performed and intestines were exposed as far as possible and serum was wiped with gauze. For control group (three rabbits) they were left desiccated and for trehalose group (two rabbits) whole intestines were sprayed with trehalose for several times. During this period, ovariohysterectomy was performed according to given method. The time period of laparotomy was 30 to 60 minutes for both groups. The 3-0 monofilament nylon fiber (Bear surgical suture; Bear Medic Corporation, Chiba) was used for ovariohysterectomy and closure of abdominal wall, and the 4-0 monofilament polyglyconate fiber (MAXON; Syneture Co., Ltd., Connecticut) was used for subcutaneous tissues and stapler (Manipler AZ-35W; Mani Inc., Tochigi) was used for skin suture. After operation, general condition and wounds were observed and they were killed by overdose of pentobarbital after 2 weeks. The adhesion status in peritoneal cavity was macroscopically observed and recorded as well as tissues of adhesion sites were removed as pathohistological test material and fixed in formalin.
# The clinical findings after 2 weeks and the macroscopic findings of adhesion status after laparotomy of each case are shown in Table 1.
# [3] = test system: abdominal adhesion model using rabbits; assay: Rabbit abdominal adhesion model by desiccating intestine surface during abdominal surgery (Example 3); type: in vivo, New Zealand White rabbits; parameters: key to Adhesion sites: greater omentum - rectum / Adhesion sites: greater omentum - stomach / Adhesion sites: greater omentum - small intestine / Adhesion sites: small intestine - rectum / Adhesion sites: abdominal wall - bladder / Adhesion sites: abdominal wall - fat / Adhesion sites: colon-fat / Adhesion sites: jejunum - abdominal wall / Adhesion sites: cecum - colon: non-adhesion: −; Adhesions of mild degree (abruption enabled): +; Adhesions of severe degree (abruption enabled): ++; Score-Total: scale not given here
# Experimental: In this example, abdominal adhesion model was prepared using rabbits by desiccating surface of intestines during abdominal surgery, and the preventive effect on intestine adhesion by trehalose was discussed.
# As trehalose, powder trehalose (Reagent trehalose; Hayashihara Biochemical Labs., Inc.) were dissolved in sterile distilled water of 250 mL as 7% solution, sterilized by filtration with filter (Millex; Millpore Co., Bed ford) and poured to sterile container and stored at room temperature.
# As test animals, 20 female New Zealand White rabbits weighing 2.6 to 3.2 kg aged of 14 weeks (Std:NZW, Japan SLC, Inc., Shizuoka) were used. The rabbits were kept in animal laboratory (room temperature of 24+/−1 degrees C., humidity of 30 to 70%) in The University of Tokyo, Graduate School of Agricultural and Life Sciences Veterinary Medical Center. The rabbits were acclimatized for 1 week after purchase, and during this period blood test (complete blood count, BUN, Cre, ALT, ALP) and general x-ray test were performed to confirm that abnormality was not present. The experiment of this example was performed according to the Manual of animal experiment of The University of Tokyo.
# as §1
# as §2, with “Seiyaku Ca,” for “Seiyaku Co.,”, “isoflurane (SOFLU” for “isoflurane (ISOFLU;”, “intravenously administered.” for “intravenously administered,”, “administered.” for “administered. During anesthesia, ECG, ETCO2 and SpO2 were monitored and maintained within their normal variations.”
# During anesthesia, ECG, ETCO2 and SpO2 were monitored and maintained within their normal variations.
# For the 20 rabbits, after disinfection of operative field, abdominal median incision was performed and intestines were exposed as far as possible and serum was wiped with gauze. Total ovariohysterectomy performed according to given method. Four section of ovarion arteries and veins were severed after being ligated with 4-0 mono filament polyglyconate suture (MAXON; Syneture Co., Ltd., Connecticut). Also, uterovaginal stump were sutured with 5-0 mono filament polyglyconate suture (MAXON; Syneture Co., Ltd., Connecticut), the 3-0 mono filament polyglyconate suture (MAXON; Syneture CO., Ltd., Connecticut) was used for closure of abdominal wall, and the 4-0 mono filament polyglyconate suture (MAXON; Syneture Co., Ltd., Connecticut) was used for subcutaneous tissues and stapler (ManiplerAZ-35W; Mani Inc., Tochigi) was used for skin suture.
# Ten rabbits among the twenty rabbits were randomized to the control group, and the other ten rabbits were classified into the trehalose group.
# The control group (10 rabbits) was left desiccated. The time period of laparotomy was 60 minutes.
# For the trehalose group, trehalose solution was sprayed over the whole abdominal cavities every 15 minutes (0 minutes, 15 minutes, 30 minutes, 45 minutes, 60 minutes after starting the operation). The time period of laparotomy was 60 minutes. After operation, general condition and wounds were observed and rabbits were euthanized by excessive administration of pentobarbital two weeks after the operations.
# The adhesion status in peritoneal cavity was macroscopically observed and recorded as well as tissues of adhesion sites were removed as pathohistological test materials and fixed in formalin. The clinical findings after 2 weeks and the macroscopic findings of adhesion status after laparotomy of each case are shown in Table 2.
# [4] = 2% trehalose solution sprayed on whole intestines, macroscopic, 2 weeks after operation, individual rabbits
# [5] = 7% trehalose solution sprayed every 15 minutes, 60 min laparotomy, 2 weeks after, individual rabbits No. 1-10
smiles,measurement,setting,value
"O=C1O[C@H]([C@@H](O)CO)C(O)=C1O[C@H]1O[C@H](CO)[C@@H](O)[C@H](O)[C@H]1O [2.5 mM AA-2G solution, ascorbic acid-2-glucoside]",cell survival rate,[1],61.8%
same,cell survival rate in control plates (effect of each reagent on cells),[1],101.6% and 101.5%
same,cell protection effect,[1],the cell protection effect was not observed
"OC[C@H]1O[C@H](O[C@H]2O[C@H](CO)[C@@H](O)[C@H](O)[C@H]2O)[C@H](O)[C@@H](O)[C@@H]1O [Trehalose, trehalose]",cell survival rate,[1],70.7%
same,cell survival rate in control plates (effect of each reagent on cells),[1]; listed as 132 mM trehalose solution,97.6% and 97.7%
same,cell protection effect,[1],the cell protection effect was observed
same,Clinical findings,"[2]; 2 weeks after operation, individual rabbits",Partial dehiscence; also recorded: No abnormal findings
same,Clinical findings,"[2]; 2 weeks after operation, individual rabbits, listed as trehalose",a part of skin suture site was removed and showed ulcer in 1 case
same,Findings after laparotomy: Adhesion of stump of uterus,[2]; [4],Present
same,Findings after laparotomy: Adhesion sites in intestines,[2]; [4],2 sites of adhesion and No significant
same,Findings after laparotomy: Adhesion sites in intestines,"[2]; 2% trehalose solution sprayed on whole intestines, macroscopic, 2 weeks after operation, individual rabbits, listed as trehalose",2 sites of mild adhesion were suspected in 1 rabbit and no significant adhesion was macroscopically observed
same,prevention of abdominal adhesion due to desiccation (conclusion),[2]; spray of 2% trehalose solution,would be effective for prevention of abdominal adhesion due to desiccation
same,cases with adhesions of mild and severe degree between abdominal organs,"[3]; 7% trehalose solution spray, 10 rabbits, control 6 of 10",2 of 10
same,adhesion scores between organs (group),"[3]; 7% trehalose solution spray, 10 rabbits, control group +16",+3
same,Adhesion sites: abdominal wall - bladder,[3]; [5],−
same,Adhesion sites: abdominal wall - fat,[3]; [5],−
same,Adhesion sites: cecum - colon,[3]; [5],+ and − (9×)
same,Adhesion sites: colon-fat,[3]; [5],−
same,Adhesion sites: greater omentum - rectum,[3]; [5],−
same,Adhesion sites: greater omentum - small intestine,[3]; [5],−
same,Adhesion sites: greater omentum - stomach,[3]; [5],−
same,Adhesion sites: jejunum - abdominal wall,[3]; [5],−
same,Adhesion sites: small intestine - rectum,[3]; [5],− (9×) and ++
same,Score-Total,"[3]; adhesion score per rabbit, 7% trehalose solution spray, individual rabbits No. 1-10",1 and 0 (8×) and 2
same,prevention of abdominal adhesion due to desiccation (conclusion),[3]; spray of 7% trehalose solution,can obviously prevent and reduce adhesions
same,prevention ratio,"[3]; trehalose group versus control group adhesion score, Wilcoxon rank-sum test p<0.05",81%
